From ChEMBL document CHEMBL4007425, “Drug Repurposing of Histone Deacetylase Inhibitors That Alleviate Neutrophilic Inflammation in Acute Lung Injury and Idiopathic Pulmonary Fibrosis via Inhibiting Leukotriene A4 Hydrolase and Blocking LTB4 Biosynthesis” (J Med Chem, 2017) come the findings set out here.

Calls of active or inactive are those of the source. No cut-off for these calls is given here.

For data set [1], the target named is T1, Leukotriene A-4 hydrolase (Homo sapiens, UniProt P09960).
T1 sequence (P09960 whole entry): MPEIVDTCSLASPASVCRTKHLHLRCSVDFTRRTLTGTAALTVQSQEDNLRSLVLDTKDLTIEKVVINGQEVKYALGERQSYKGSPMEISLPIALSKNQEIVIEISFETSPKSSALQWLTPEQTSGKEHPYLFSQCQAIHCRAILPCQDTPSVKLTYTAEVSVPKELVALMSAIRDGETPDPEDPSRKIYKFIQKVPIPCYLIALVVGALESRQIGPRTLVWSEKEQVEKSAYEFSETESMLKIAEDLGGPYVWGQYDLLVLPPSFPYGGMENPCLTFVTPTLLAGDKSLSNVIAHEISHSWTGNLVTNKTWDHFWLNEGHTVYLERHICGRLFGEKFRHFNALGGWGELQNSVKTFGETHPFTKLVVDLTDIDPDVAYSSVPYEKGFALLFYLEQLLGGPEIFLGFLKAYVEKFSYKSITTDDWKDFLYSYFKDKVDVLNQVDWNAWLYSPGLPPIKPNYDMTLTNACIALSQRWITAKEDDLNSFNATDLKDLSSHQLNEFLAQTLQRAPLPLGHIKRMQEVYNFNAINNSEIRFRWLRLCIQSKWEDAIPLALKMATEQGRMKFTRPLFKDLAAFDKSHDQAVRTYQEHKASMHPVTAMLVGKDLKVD
Description: Inhibition of recombinant human LTA4H aminopeptidase activity expressed in Escherichia coli BL21 (DE3) pLysS assessed as formation of p-NA from Ala-p-NA preincubated for 10 mins followed by substrate addition measured after 10 mins. It is filed as ADME.

The target of data set [2] is T1, Leukotriene A-4 hydrolase. Description: Inhibition of recombinant human LTA4H Epoxide Hydrolase expressed in Escherichia coli BL21 (DE3) pLysS preincubated for 10 mins followed by addition of LTA4 as substrate measured after 15 mins by reverse-phase HPLC analysis.
Data set [3] deals with T2, Polyunsaturated fatty acid 5-lipoxygenase (Homo sapiens) (UniProt P09917).
T2 sequence (whole entry): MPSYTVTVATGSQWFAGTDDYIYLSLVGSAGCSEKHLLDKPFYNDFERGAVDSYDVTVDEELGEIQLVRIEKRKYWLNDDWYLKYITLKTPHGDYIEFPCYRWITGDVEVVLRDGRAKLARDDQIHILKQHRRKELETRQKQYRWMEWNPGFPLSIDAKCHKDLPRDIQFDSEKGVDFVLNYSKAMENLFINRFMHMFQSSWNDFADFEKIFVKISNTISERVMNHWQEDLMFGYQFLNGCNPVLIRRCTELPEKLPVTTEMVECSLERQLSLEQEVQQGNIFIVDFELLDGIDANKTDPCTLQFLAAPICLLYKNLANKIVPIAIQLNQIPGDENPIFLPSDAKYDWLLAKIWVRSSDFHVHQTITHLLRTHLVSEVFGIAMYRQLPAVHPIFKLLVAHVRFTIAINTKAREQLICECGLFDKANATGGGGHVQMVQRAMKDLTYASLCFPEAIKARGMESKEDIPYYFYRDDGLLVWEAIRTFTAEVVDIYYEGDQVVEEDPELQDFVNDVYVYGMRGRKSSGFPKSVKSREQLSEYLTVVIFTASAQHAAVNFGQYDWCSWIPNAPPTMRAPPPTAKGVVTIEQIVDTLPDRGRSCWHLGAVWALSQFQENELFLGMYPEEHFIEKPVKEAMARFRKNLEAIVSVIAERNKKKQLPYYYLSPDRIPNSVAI
Description: Inhibition of recombinant human N-terminal His-tagged 5-LOX expressed in Escherichia coli assessed as conversion of arachidonic acid to HpETEs measured for 300 secs by UV-visible spectrophotometric analysis.

In data set [4] the test system is Mus musculus. Description: Anti-inflammatory activity in LPS-induced C57BL/6 mouse model of acute lung injury assessed as reduction in total number of leucocytes in BALF at 25 mg/kg, ip pretreated for 1 hr followed LPS challenge measured after 24 hrs. It is filed as functional, organism-based.
The subject of data set [5] is Mus musculus. Description: Anti-inflammatory activity in LPS-induced C57BL/6 mouse model of acute lung injury assessed as reduction in protein concentration in BALF at 25 mg/kg, ip pretreated for 1 hr followed LPS challenge measured after 24 hrs. It is filed as functional, organism-based.
In data set [6] the test system is Mus musculus. Description: Anti-inflammatory activity in LPS-induced C57BL/6 mouse model of acute lung injury assessed as reduction MPO activity at 25 mg/kg, ip pretreated for 1 hr followed LPS challenge measured after 24 hrs. It is filed as functional, organism-based.
In data set [7] the test system is Mus musculus. Description: Anti-inflammatory activity in LPS-induced C57BL/6 mouse model of acute lung injury assessed as reduction in pulmonary edema by measuring lung wet/dry ratio at 25 mg/kg, ip pretreated for 1 hr followed LPS challenge after 24 hrs […]. It is filed as functional, organism-based.
The test system of data set [8] is Mus musculus. Description: Anti-inflammatory activity in BLM-induced C57BL/6 mouse model of acute lung injury assessed as reduction in IL-1beta mRNA level in BALF compound administered intraperitoneally once daily for 7 days post BLM challenge measured on day 7 by qRT-PCR method. It is filed as functional.
For data set [9], the target named is T3, Leukotriene A-4 hydrolase (LTA4H) aminopeptidase activity (Homo sapiens, UniProt P09960).
T3 sequence (P09960 whole entry): T1 sequence (P09960 whole entry)
Description: Inhibition of recombinant human LTA4H aminopeptidase activity expressed in Escherichia coli BL21 (DE3) pLysS assessed as formation of p-NA from Ala-p-NA at 10 uM preincubated for 10 mins followed by substrate addition measured after 10 mins.

Data set [10] deals with T4, Leukotriene A-4 hydrolase (Homo sapiens) (UniProt P09960).
T4 sequence (whole entry): T1 sequence (P09960 whole entry)
Description: Binding affinity to recombinant human LTA4H hydrolase assessed as change in melting temperature at 50 uM by SYPRO orange dye-based thermofluor assay

The target of data set [11] is T4, Leukotriene A-4 hydrolase (Homo sapiens). Conditions: at 10 µM.
Description: Inhibition of recombinant human LTA4H Epoxide Hydrolase expressed in Escherichia coli BL21 (DE3) pLysS at 10 uM preincubated for 10 mins followed by addition of LTA4 as substrate measured after 15 mins by reverse-phase HPLC analysis

As for `O=C(CCCCCCC(=O)Nc1ccccc1)NO` [VORINOSTAT], the IC50 in [1] amounted to 1670 nM; in [2], 7650 nM. Moreover, the INH in data set [3] was greater than 50 µM. Also, the result in [4], in [5], in [6] and in data set [7] was Active. In addition, in data set [8], the Activity entry was “Dose-dependent effect”. Moreover, in data set [9], the inhibition at 10 min, 10 µM is greater than 50%. Also, the ΔTm in [10] stood at 1.47 °C. For the same molecule, the inhibition in data set [11] is greater than 50%.

For `CN(C)c1ccc(C(=O)NCCCCCCC(=O)NO)cc1`, the IC50 is 300 nM in data set [1] and 680 nM in data set [2]. In addition, the INH in [3] was greater than 50 µM. Moreover, the result in data set [4], in data set [5], in [6] and in [7] was Active. The Activity result in [8] is “Dose-dependent effect”. Moreover, the inhibition at 10 min, 10 µM in [9] (probe Ala-p-NA) was greater than 50%. Besides, in [10], the ΔTm was 2.35 °C. Moreover, the inhibition in [11] is greater than 50%.
